Data as given in patent EP0303483A2, “Novel lymphokine and compositions thereof” (THE UNIVERSITY OF BRITISH COLUMBIA, priority 1987, dated 1989).

Tested on: BDF1 spleen cells
Test: CTL induction, PHA-P-mediated cytotoxicity assay (51Cr-labelled P815 targets), BDF1 spleen cells
Type: cell-based, mice
Details: 5 x 10³ BDF1 spleen cells
Procedure: Cultures and Assays: The culture medium used was Iscove's Modified Dulbecco's medium supplemented with 10% fetal bovine serum (Bocknek, Rexdale, Ontario), 5 x 10⁻⁵M 2-mercaptoethanol, 50 U/ml of Penicillin and 50 µg/ml streptomycin. All cultures were incubated at 37°C in 5% CO₂ in humid air.
For CTL assays, cultures were set up by incubating the indicated number of spleen cells, lymph node cells or thymocytes with the appropriate lymphokine in conical bottomed microtiter plates (Flow Laboratories, #76-023-05) as previously described by Teh et al, 1983, supra. Five days later the cultures were assessed for cytotoxic activity in phytohemaglutinin (PHA-P)-mediated cytotoxicity assay as described by Bevan and Cohn, J. Immunol 1975 114:559. This assay detects CTL of all specificities. A total of 3 x 10³ ⁵¹Cr-labelled P815 (H-2^d) mastocytoma target cells (available from ATCC®) and 10 µg/ml of PHA-P were added to each well. Spontaneous release during the 3.5 hr assay period was about 10% of the maximum releasable counts.

CCCCCCCCCCCCCC(=O)O[C@@H]1[C@@H](C)[C@@]2(O)[C@@H](C=C(CO)C[C@]3(O)C(=O)C(C)=C[C@@H]23)[C@@H]2C(C)(C)[C@]12OC(C)=O [PMA, phorbol-12-myristate-13-acetate]
% specific lysis (M SE) (PMA 0.03 ng/ml with rIL-2 20 U/ml): 3.5 ± 1.5% | % specific lysis (M SE) (PMA 0.1 ng/ml alone): -2.2 ± 1.4% | % specific lysis (M SE) (PMA 0.1 ng/ml with rIL-2 20 U/ml): 15.7 ± 5.1% | % specific lysis (M SE) (PMA 0.3 ng/ml alone): -3.2 ± 1.7% | % specific lysis (M SE) (PMA 0.3 ng/ml with rIL-2 20 U/ml): 14.8 ± 3.3% | % specific lysis (M SE) (PMA 1.0 ng/ml alone): -2.5 ± 0.9% | % specific lysis (M SE) (PMA 1.0 ng/ml with rIL-2 20 U/ml): 2.8 ± 1.3% | % specific lysis (M SE) (PMA 3.0 ng/ml alone): -1.0 ± 1.8% | % specific lysis (M SE) (PMA 3.0 ng/ml with rIL-2 20 U/ml): 4.3 ± 1.4% | % specific lysis (M SE) (PMA 10.0 ng/ml alone): -0.9 ± 1.6% | % specific lysis (M SE) (PMA 10.0 ng/ml with rIL-2 20 U/ml): -0.4 ± 0.9%
